Source: patent publication US11083735B2, “Methods for treating sleep disorders, sleep disturbances, and related symptoms using aminosterol compositions” (Enterin, Inc., priority 2017, dated 2021)

Columns and labels:
[1] = test system: patients with PD and constipation; assay: Phase 2 trial Stage 2: adverse events; conditions: for Common adverse events by dose: Dizziness: lightheadedness included
Method: In Stage 2, 34 patients were evaluated. […] This dose was then maintained (“fixed dose”) for an additional 3-5 days. After the “fixed dose”, these patients were randomly assigned to either continued treatment at that dose or to a matching placebo, for an additional 4-6 days prior to a 2-week wash-out.
A second cohort of 19 patients received squalamine (ENT-01) escalating from 100 mg/day to a maximum of 250 mg/day without subsequent randomization to squalamine (ENT-01) or placebo. Criteria for dose selection and efficacy were identical to those used in the previous cohort.
Adverse events were coded using the current version of MedDRA. Severity of AEs were assessed by investigators according to CTCAE (v4.03): Grade 1 is labeled as Mild, Grade 2 as Moderate, and Grade 3 and above as Severe. […] The number (percentage) of subjects who experienced an AE during escalation and fixed dosing periods were summarized by dose level and overall for each stage. The denominator for calculating the percentages were based on the number of subjects ever exposed to each dose and overall.

[2] = test system: patients with PD and constipation; assay: Phase 2 trial Stage 2 (daily dosing): bowel function, stool related indices; assay type: in vivo, human; conditions: for response rate: Stage 2 daily dosing
Excerpt: (2) Rome-IV Criteria for Constipation (7 criteria, with constipation diagnosis requiring two or more of the following: (i) straining during at least 25% of defecations, (ii) lumpy or hard stools in at least 25% of defecations, (iii) sensation of incomplete evacuation for at least 25% of defecations, (iv) sensation of anorectal obstruction/blockage for at least 25% of defecations; (v) manual maneuvers to facilitate at least 25% of defecations; (vi) fewer than 3 defecations per week; and (vii) loose stools are rarely present without the use of laxatives;
(3) Constipation—Ease of Evacuation Scale (from 1-7, with 7=incontinent, 4=normal, and 1=manual disimpaction);
(4) Bristol Stool Chart, which is a patient-friendly means of categorizing stool characteristics (assessment of stool consistency is a validated surrogate of intestinal motility) and Stool Diary;
(14) Patient Assessment of Constipation Symptoms (PAC-SYM);
(15) Patient Assessment of Constipation Quality of Life (PAC-QOL);
In Stage 2, 34 patients were evaluated.
The primary efficacy outcome variable was whether or not a subject was a “success” or “failure”. This is an endpoint based on subject diary entries for the “fixed dose” period prior to the endpoint assessment defined as average complete stool frequency increase by 1 or more over baseline, or 3 or more complete spontaneous stools/week. The subject was deemed a “success” if s/he met one or more of the criteria listed above, otherwise the subject was deemed a “failure”. The primary analysis was based on all subjects with a baseline assessment and an assessment at the end of the “fixed-dose” period and was a comparison of the proportion of successes with 0.10 (the null hypothesis corresponding to no treatment effect).
The proportion of subjects for whom the drug was a success was estimated with a binomial point estimate and corresponding 95% confidence interval. A secondary analysis compared the proportions of subjects who are deemed a success at the end of the randomized fixed-dose period between those randomized to the squalamine (ENT-01) arm and those randomized to the placebo arm. A Fisher's exact test was used to compare the proportions of subjects who were deemed a success at the end of randomization period between the two randomized arms.

vagal afferent fibers = assay: Multiunit firing of a jejunal branch of the vagus (mesenteric nerve); set-up: species or system mouse; conditions: luminal squalamine
Method: Squalamine was applied into the lumen by gravity feed 11 min after beginning the recording. […] The Control represents background discharge before applying squalamine, and the Peak gives the average firing frequency during a 3 min period at the peak of the response.
To determine whether the electrical activity stimulated by the luminal application of squalamine was principally contained within the ENS of the intestine, or whether it communicated information rostrally to the CNS, a further experiment was designed in which multiunit fiber firing rates were measured from a single jejunal branch of the vagus. Squalamine was introduced 11 minutes after recordings were begun. Vagal afferent firing frequency increased almost immediately thereafter to 3 fold the initial rate within a few minutes.

CC(C)[C@@H](CC[C@@H](C)[C@H]1CC[C@H]2[C@@H]3[C@H](O)C[C@H]4C[C@@H](NCCCNCCCCN)CC[C@]4(C)[C@H]3CC[C@]12C)OS(=O)(=O)O (single isomer, unassigned; ent-01) [ENT-01]
AEs confined to the GI tract ([1]; Stage 2): 63%
Diarrhea, patients ([1]; Stage 2, 15/34): 44%
nausea, patients ([1]; Stage 2, 18/34): 52.9%
Abdominal pain, Mild ([1]; Stage 2, 34 dosed): 4(11.7) n, %
Abdominal pain, Moderate ([1]; Stage 2, 34 dosed): 2(5.8) n, %
Blood in urine, Mild ([1]; Stage 2, 34 dosed): 0 n, %
Blood in urine, Moderate ([1]; Stage 2, 34 dosed): 0 n, %
Diarrhea, Mild ([1]; Stage 2, 34 dosed): 12(35) n, %
Diarrhea, Moderate ([1]; Stage 2, 34 dosed): 2(5.8) n, %
Diarrhea, Severe ([1]; Stage 2, 34 dosed): 1(2.9) n, %
Difficulty falling asleep, Mild ([1]; Stage 2, 34 dosed): 1(3) n, %
Difficulty falling asleep, Moderate ([1]; Stage 2, 34 dosed): 0 n, %
Dizziness, Mild ([1]; Stage 2, 34 dosed): 7(20.5) n, %
Dizziness, Moderate ([1]; Stage 2, 34 dosed): 1(2.9) n, %
Flatulence, Mild ([1]; Stage 2, 34 dosed): 1(3) n, %
Flatulence, Moderate ([1]; Stage 2, 34 dosed): 0 n, %
Headache, Mild ([1]; Stage 2, 34 dosed): 3(8.8) n, %
Headache, Moderate ([1]; Stage 2, 34 dosed): 0 n, %
Increased urinary frequency, Mild ([1]; Stage 2, 34 dosed): 2(5.8) n, %
Increased urinary frequency, Moderate ([1]; Stage 2, 34 dosed): 0 n, %
Loss of appetite, Mild ([1]; Stage 2, 34 dosed): 0 n, %
Loss of appetite, Moderate ([1]; Stage 2, 34 dosed): 0 n, %
Nausea, Mild ([1]; Stage 2, 34 dosed): 18(52) n, %
Nausea, Moderate ([1]; Stage 2, 34 dosed): 1(2.9) n, %
Skin lesions-rash, Mild ([1]; Stage 2, 34 dosed): 3(8.8) n, %
Skin lesions-rash, Moderate ([1]; Stage 2, 34 dosed): 0 n, %
Urinary retention, Mild ([1]; Stage 2, 34 dosed): 1(3) n, %
Urinary retention, Moderate ([1]; Stage 2, 34 dosed): 0 n, %
Vomiting, Mild ([1]; Stage 2, 34 dosed): 2(5.8) n, %
Vomiting, Moderate ([1]; Stage 2, 34 dosed): 0 n, %
Worsening acid reflux, Mild ([1]; Stage 2, 34 dosed): 4(11.7) n, %
Worsening acid reflux, Moderate ([1]; Stage 2, 34 dosed): 0 n, %
Worsening hemorrhoid, Mild ([1]; Stage 2, 34 dosed): 1(3) n, %
Worsening hemorrhoid, Moderate ([1]; Stage 2, 34 dosed): 0 n, %
Common adverse events by dose: Diarrhea ([1]; Stage 2, dose 75 mg): 7
Common adverse events by dose: Nausea ([1]; Stage 2, dose 75 mg): 3
Common adverse events by dose: Dizziness ([1]; Stage 2, dose 75 mg): 8
Common adverse events by dose: Diarrhea ([1]; Stage 2, dose 100 mg): 10
Common adverse events by dose: Nausea ([1]; Stage 2, dose 100 mg): 12
Common adverse events by dose: Dizziness ([1]; Stage 2, dose 100 mg): 7
Common adverse events by dose: Diarrhea ([1]; Stage 2, dose 125 mg): 3
Common adverse events by dose: Nausea ([1]; Stage 2, dose 125 mg): 4
Common adverse events by dose: Dizziness ([1]; Stage 2, dose 125 mg): 8
Common adverse events by dose: Diarrhea ([1]; Stage 2, dose 150 mg): 2
Common adverse events by dose: Nausea ([1]; Stage 2, dose 150 mg): 11
Common adverse events by dose: Dizziness ([1]; Stage 2, dose 150 mg): 2
Common adverse events by dose: Diarrhea ([1]; Stage 2, dose 175 mg): 1
Common adverse events by dose: Nausea ([1]; Stage 2, dose 175 mg): 12
Common adverse events by dose: Dizziness ([1]; Stage 2, dose 175 mg): 0
Common adverse events by dose: Diarrhea ([1]; Stage 2, dose 200 mg): 2
Common adverse events by dose: Nausea ([1]; Stage 2, dose 200 mg): 6
Common adverse events by dose: Diarrhea ([1]; Stage 2, dose 225 mg): 3
Common adverse events by dose: Nausea ([1]; Stage 2, dose 225 mg): 1
Common adverse events by dose: Diarrhea ([1]; Stage 2, dose 250 mg): 2
Lower GI bleed, Severe ([1]; Stage 2, Unrelated to ENT-01 (diverticulosis, polyp, aspirin, Plavix, naproxen)): 1(2.5) n, %
Median efficacious dose ([2]; Stage 2): 100 mg
CSBM, Fixed dose (mean, SD) ([2]; Stage 2, Table 12, baseline 1.2 (0.90)): 3.8
PAQ-SYM, Fixed dose (Mean, SD) ([2]; Stage 2, Table 12, baseline 1.3 (0.45)): 1.1
PAQ-QOL, Fixed dose (Mean, SD) ([2]; Stage 2, Table 12, baseline 1.4 (0.49)): 1.2
Rescue meds, Fixed dose (Mean, SD) ([2]; Stage 2, Table 12, baseline 1.8 (1.92)): 0.3
SBM, Fixed dose (mean, SD) ([2]; Stage 2, Table 12, baseline 2.6 (1.45)): 4.5
Consistency, Fixed dose (mean, SD) ([2]; Stage 2, Table 12, baseline 2.7 (1.20)): 4.1
Ease, Fixed dose (Mean, SD) ([2]; Stage 2, Table 12, baseline 3.2 (0.73)): 3.7
PAC-SYM, Fixed dose (mean, SD) ([2]; Stage 2, dosed patients n = 34, baseline 1.3 (0.45)): 1.1 (0.49)
PAC-QOL total, Fixed dose (mean, SD) ([2]; Stage 2, dosed patients n = 34, baseline 1.4 (0.49)): 1.2 (0.59)
CSBM, Fixed dose (mean, SD) ([2]; Stage 2, dosed patients n = 34, weekly average, baseline 1.2 (0.90)): 3.8 (2.40)
Suppository use, Fixed dose (mean, SD) ([2]; Stage 2, dosed patients n = 34, weekly average, baseline 1.8 (1.92)): 0.3 (0.67)
SBM, Fixed dose (mean, SD) ([2]; Stage 2, dosed patients n = 34, weekly average, baseline 2.6 (1.45)): 4.5 (2.21)
Consistency, Fixed dose (mean, SD) ([2]; Stage 2, n = 34, Bristol stool scale 1-7, 1 = separate hard lumps, 7 = liquid consistency, baseline 2.7 (1.20)): 4.1 (2.13)
Ease of passage, Fixed dose (mean, SD) ([2]; Stage 2, n = 34, Ease of evacuation scale, 1-manual disimpaction, 7 = incontinent, baseline 3.2 (0.73)): 3.7 (1.19)
CSBM, Wash-out (Mean, SD) ([2]; Stage 2, wash-out period, baseline 1.2 (0.90)): 1.8 (1.19)
PAQ-SYM, Wash-out (Mean, SD) ([2]; Stage 2, wash-out period, baseline 1.3 (0.45)): 1.1 (0.60)
PAQ-QOL, Wash-out (Mean, SD) ([2]; Stage 2, wash-out period, baseline 1.4 (0.49)): 1.2 (0.63)
Rescue meds, Wash-out (Mean, SD) ([2]; Stage 2, wash-out period, baseline 1.8 (1.92)): 1.0 (1.40)
SBM, Wash-out (Mean, SD) ([2]; Stage 2, wash-out period, baseline 2.6 (1.45)): 3.2 (1.80)
Consistency, Wash-out (Mean, SD) ([2]; Stage 2, wash-out period, baseline 2.7 (1.20)): 2.8 (1.39)
Ease, Wash-out (Mean, SD) ([2]; Stage 2, wash-out period, baseline 3.2 (0.73)): 3.3 (0.81)
response rate ([2]; 75 mg): 26%
response rate ([2]; 250 mg): 85.3%
Average CSBM/week ([2]; at fixed dose, baseline 1.2): 3.8
Use of rescue medication ([2]; at fixed dose, baseline 1.8/week): 0.3 /week
SBM ([2]; at fixed dose, baseline 2.6): 4.5
CSBM frequency ([2]; beyond the treatment period (wash-out)): remained significantly above baseline value
Subjective indices of wellbeing (PAC-QOL) ([2]; during treatment): improved
constipation symptoms (PAC-SYM) ([2]; during treatment): improved
CSBM/week ([2]; patients later randomized to Placebo (n = 9), Fixed dose period on drug, Baseline 1.6): 3.3
dose for a bowel response, mean ([2]; patients with baseline constipation of <1 CSBM/week): 192 mg
dose for a bowel response, mean ([2]; patients with ≥1 CSBM/week at baseline): 120 mg
CSBM/week ([2]; randomized cohort, Treatment (n = 6), Fixed dose, Baseline 0.8): 3.2
CSBM/week ([2]; randomized cohort, Treatment (n = 6), Randomized period): 2.4
CSBM/week ([2]; randomized cohort, Treatment (n = 6), Washout): 0.9
Consistency based on the Bristol stool scale, mean ([2]; treatment, from 2.7): 4.1
ease of passage ([2]; treatment, from 3.2): 3.7
patients responding ([2]; within 75 mg to 250 mg): 85%

CC(C)[C@@H](CC[C@@H](C)[C@H]1CC[C@H]2[C@@H]3[C@H](O)C[C@H]4C[C@@H](NCCCNCCCCN)CC[C@]4(C)[C@H]3CC[C@]12C)OS(=O)(=O)O [squalamine]
persistence of increased firing rate (vagal afferent fibers): at least 20 minutes
vagal afferent firing frequency relative to the initial rate (vagal afferent fibers; within a few minutes): 3 fold
